Test results from ChEMBL document CHEMBL5500412, “Discovery of Highly Selective, Potent, Covalent, and Orally Bioavailable Factor XIIa Inhibitors for the Treatment of Thrombo-Inflammation” (J Med Chem, 2024).
Activity calls are given as the source filed them. The calls are words filed in the database; no cut-off is given here.

Columns and labels:
Coagulation factor XII [1] = biological target: T1, Coagulation factor XII (Homo sapiens, UniProt P00748); experiment: Inhibition of FXIIa (unknown origin) using H-D-Pro-Phe-Arg-pNA as substrate incubated for 20 mins followed by substrate addition by spectrophotometric analysis
T1 sequence (P00748 whole entry): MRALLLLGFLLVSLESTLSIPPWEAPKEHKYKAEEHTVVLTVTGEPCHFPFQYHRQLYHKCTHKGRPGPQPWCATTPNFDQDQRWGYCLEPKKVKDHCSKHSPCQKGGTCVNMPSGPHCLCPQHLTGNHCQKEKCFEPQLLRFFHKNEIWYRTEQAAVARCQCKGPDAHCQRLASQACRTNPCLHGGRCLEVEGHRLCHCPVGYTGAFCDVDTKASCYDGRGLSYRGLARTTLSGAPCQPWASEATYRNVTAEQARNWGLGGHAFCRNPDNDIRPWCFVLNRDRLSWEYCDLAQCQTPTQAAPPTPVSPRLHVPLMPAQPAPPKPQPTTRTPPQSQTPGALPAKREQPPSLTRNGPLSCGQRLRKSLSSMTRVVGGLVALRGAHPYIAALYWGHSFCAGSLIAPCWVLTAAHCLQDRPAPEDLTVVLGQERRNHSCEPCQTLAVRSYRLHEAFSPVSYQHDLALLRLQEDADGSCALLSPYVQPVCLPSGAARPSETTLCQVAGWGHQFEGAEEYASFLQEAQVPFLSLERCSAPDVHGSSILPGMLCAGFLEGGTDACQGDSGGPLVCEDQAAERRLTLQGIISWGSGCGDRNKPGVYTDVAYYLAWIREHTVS

[2] = biological target: T2, Coagulation factor XII (Homo sapiens) (UniProt P00748); experiment: Inhibition of FXIIa (unknown origin) using H-D-Pro-Phe-Arg-pNA as substrate at 500 nM incubated for 20 mins followed by substrate addition by spectrophotometric analysis relative to control
T2 sequence (whole entry): T1 sequence (P00748 whole entry)

[3] = Toxicity in BALB/c mouse assessed as prolongation of bleeding time at 30 mg/kg, po measured after 90 mins; assay type: organism-based; conditions: in vivo, 1.5 h
RAW264.7 [4] = experiment: Antiinflammatory activity in mouse RAW264.7 cells assessed as inhibition of LPS-induced IL-6 expression at 10 uM preincubated for 12 hrs followed by LPS stimulation and measured after 12 hrs by real time quantitative RT-PCR assay; assay type: functional, cell-based; conditions: time 24.0 hrs
RAW264.7 [5] = experiment: Antiinflammatory activity in mouse RAW264.7 cells assessed as inhibition of LPS-induced IL-1 beta expression at 10 uM preincubated for 12 hrs followed by LPS stimulation and measured after 12 hrs by real time quantitative RT-PCR assay; assay type: functional, cell-based; conditions: time 24.0 hrs
Coagulation factor XII [6] = biological target: T1, Coagulation factor XII; experiment: Inhibition of human FXIIa (unknown origin)
[7] = biological target: Tissue-type plasminogen activator (Homo sapiens, UniProt P00750); experiment: Inhibition of tPA (unknown origin) using H-D-lle-Pro-Arg-pNA-2HCl as chromogenic substrate incubated for 20 mins followed by substrate addition by spectrophotometric analysis
[8] = Selectivity index, ratio of IC50 for FXa (unknown origin) to IC50 for FXIIa (unknown origin)
Trypsin = Trypsin (Homo sapiens, UniProt P07477+P07478+P35030); experiment: Inhibition of trypsin (unknown origin) using Bz-lle-Glu(gamma-OR)-Gly-Arg-pNA.HCl as chromogenic substrate incubated for 20 mins followed by substrate addition by spectrophotometric analysis; assay type: protein assay
[9] = Selectivity index, ratio of IC50 for trypsin (unknown origin) to IC50 for FXIIa (unknown origin)
Chymotrypsin = Chymotrypsin (Homo sapiens, UniProt Q99895+P17538+P40313+Q6GPI1); experiment: Inhibition of Chymotrypsin (unknown origin) using N-Suc-Ala-Ala-Pro-Phe-pNA as chromogenic substrate incubated for 20 mins followed by substrate addition by spectrophotometric analysis; assay type: protein assay
[10] = Selectivity index, ratio of IC50 for FXIa (unknown origin) to IC50 for FXIIa (unknown origin)
[11] = Selectivity index, ratio of IC50 for tPA (unknown origin) to IC50 for FXIIa (unknown origin)
Plasma [12] = experiment: Anticoagulant activity in human plasma assessed as prolongation of activated partial thromboplastin time at 300 uM incubated for 2 mins by aPTT reagent based assay relative to control; assay type: functional
Coagulation factor XI = Coagulation factor XI (Homo sapiens, UniProt P03951); experiment: Inhibition of FXIa (unknown origin) using p-Glu-Pro-Arg-pNA.HCl as chromogenic substrate incubated for 20 mins followed by substrate addition by spectrophotometric analysis
[13] = Selectivity index, ratio of IC50 for plasmin (unknown origin) to IC50 for FXIIa (unknown origin)
Prothrombin = Prothrombin (Homo sapiens, UniProt P00734); experiment: Inhibition of thrombin (unknown origin) using H-D-Phe-Pip-Arg-pNA-2HCl as substrate incubated for 20 mins followed by substrate addition by spectrophotometric analysis
[14] = Selectivity index, ratio of IC50 for thrombin (unknown origin) to IC50 for FXIIa (unknown origin)
Plasma kallikrein = Plasma kallikrein (Homo sapiens, UniProt P03952); experiment: Inhibition of PKal (unknown origin) using H-D-Pro-Phe-Arg-pNA-2HCl as substrate incubated for 20 mins followed by substrate addition by spectrophotometric analysis
[15] = Selectivity index, ratio of IC50 for PKal (unknown origin) to IC50 for FXIIa (unknown origin)
Plasminogen = Plasminogen (Homo sapiens, UniProt P00747); experiment: Inhibition of plasmin (unknown origin) using PyroGlu-Phe-Lys-pNA.HCl as chromogenic substrate incubated for 20 mins followed by substrate addition by spectrophotometric analysis
[16] = Selectivity index, ratio of IC50 for chymotrypsin (unknown origin) to IC50 for FXIIa (unknown origin)
Plasma [17] = experiment: Anticoagulant activity in human plasma assessed as prolongation of […] time at 300 uM incubated for 2 mins by PT reagent based assay; assay type: functional, cell-free
Coagulation factor X = Coagulation factor X (Homo sapiens, UniProt P00742); experiment: Inhibition of FXa (unknown origin) using Z-D-Arg-Gly-Arg-pNA.2HCl as chromogenic substrate incubated for 20 mins followed by substrate addition by spectrophotometric analysis
Sequence of Coagulation factor X (P00742 41-179 limits assumed): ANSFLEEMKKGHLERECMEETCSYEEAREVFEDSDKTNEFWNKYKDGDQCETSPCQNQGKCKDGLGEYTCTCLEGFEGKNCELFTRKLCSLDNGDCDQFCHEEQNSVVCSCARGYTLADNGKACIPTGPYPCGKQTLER
Sequence of Coagulation factor X (P00742 235-488 limits assumed): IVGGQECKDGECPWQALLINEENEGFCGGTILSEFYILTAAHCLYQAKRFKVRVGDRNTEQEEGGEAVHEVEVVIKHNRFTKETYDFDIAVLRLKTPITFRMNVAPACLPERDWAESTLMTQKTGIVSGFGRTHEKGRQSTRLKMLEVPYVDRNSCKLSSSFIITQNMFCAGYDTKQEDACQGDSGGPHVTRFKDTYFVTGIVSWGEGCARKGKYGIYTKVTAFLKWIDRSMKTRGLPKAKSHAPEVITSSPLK

Sequence of Tissue-type plasminogen activator (P00750 whole entry): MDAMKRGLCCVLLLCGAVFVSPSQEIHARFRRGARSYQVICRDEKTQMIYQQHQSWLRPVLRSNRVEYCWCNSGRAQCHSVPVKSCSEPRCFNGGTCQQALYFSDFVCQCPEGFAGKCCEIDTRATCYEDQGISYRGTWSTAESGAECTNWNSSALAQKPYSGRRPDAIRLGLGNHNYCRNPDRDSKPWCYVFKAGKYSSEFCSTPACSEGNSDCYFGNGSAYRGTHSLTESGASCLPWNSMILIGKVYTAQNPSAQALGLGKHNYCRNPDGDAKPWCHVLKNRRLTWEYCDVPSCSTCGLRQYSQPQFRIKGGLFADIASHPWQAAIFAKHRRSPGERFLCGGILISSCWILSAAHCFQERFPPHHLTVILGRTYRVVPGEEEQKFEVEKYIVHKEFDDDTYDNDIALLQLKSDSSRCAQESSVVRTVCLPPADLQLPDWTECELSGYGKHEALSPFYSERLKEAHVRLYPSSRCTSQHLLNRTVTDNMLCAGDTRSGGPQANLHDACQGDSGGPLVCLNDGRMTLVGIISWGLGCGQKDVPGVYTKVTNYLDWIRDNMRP
Sequence of Plasma kallikrein (P03952 20-390 limits assumed): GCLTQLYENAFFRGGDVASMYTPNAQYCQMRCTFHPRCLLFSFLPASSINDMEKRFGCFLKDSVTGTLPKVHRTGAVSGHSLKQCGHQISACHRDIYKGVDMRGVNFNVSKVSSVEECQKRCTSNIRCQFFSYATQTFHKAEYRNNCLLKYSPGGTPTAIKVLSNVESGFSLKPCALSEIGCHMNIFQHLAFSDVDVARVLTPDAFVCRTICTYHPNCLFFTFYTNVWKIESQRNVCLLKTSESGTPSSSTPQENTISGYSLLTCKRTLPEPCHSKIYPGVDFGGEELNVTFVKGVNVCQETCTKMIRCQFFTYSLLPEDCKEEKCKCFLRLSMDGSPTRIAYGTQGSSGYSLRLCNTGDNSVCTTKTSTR
Sequence of Plasma kallikrein (P03952 391-638 limits assumed): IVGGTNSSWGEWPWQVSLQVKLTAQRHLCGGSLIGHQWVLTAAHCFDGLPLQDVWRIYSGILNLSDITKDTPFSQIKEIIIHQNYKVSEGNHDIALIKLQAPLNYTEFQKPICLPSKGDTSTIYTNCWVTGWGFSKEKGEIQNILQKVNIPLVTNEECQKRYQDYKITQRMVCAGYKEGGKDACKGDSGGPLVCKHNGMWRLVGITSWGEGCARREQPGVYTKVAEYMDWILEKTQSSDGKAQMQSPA
Sequence of Coagulation factor XI (P03951 19-387 limits assumed): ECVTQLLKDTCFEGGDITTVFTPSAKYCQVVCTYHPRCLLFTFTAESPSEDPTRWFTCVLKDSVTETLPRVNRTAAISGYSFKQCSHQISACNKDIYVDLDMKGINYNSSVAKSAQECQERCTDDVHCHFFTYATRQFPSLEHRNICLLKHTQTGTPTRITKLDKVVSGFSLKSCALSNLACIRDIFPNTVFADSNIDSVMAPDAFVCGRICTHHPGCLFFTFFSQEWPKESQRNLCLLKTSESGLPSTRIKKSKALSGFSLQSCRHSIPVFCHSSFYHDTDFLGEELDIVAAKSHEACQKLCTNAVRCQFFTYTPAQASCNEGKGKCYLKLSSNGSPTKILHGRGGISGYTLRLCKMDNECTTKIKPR
Sequence of Coagulation factor XI (P03951 388-625 limits assumed): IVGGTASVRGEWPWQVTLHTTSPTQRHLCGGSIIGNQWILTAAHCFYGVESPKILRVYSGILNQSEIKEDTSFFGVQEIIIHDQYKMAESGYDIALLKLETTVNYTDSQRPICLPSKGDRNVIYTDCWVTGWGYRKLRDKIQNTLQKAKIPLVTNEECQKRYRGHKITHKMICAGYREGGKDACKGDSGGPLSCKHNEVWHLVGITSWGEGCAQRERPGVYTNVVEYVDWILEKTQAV
Sequence of Plasminogen (P00747 97-580 limits assumed): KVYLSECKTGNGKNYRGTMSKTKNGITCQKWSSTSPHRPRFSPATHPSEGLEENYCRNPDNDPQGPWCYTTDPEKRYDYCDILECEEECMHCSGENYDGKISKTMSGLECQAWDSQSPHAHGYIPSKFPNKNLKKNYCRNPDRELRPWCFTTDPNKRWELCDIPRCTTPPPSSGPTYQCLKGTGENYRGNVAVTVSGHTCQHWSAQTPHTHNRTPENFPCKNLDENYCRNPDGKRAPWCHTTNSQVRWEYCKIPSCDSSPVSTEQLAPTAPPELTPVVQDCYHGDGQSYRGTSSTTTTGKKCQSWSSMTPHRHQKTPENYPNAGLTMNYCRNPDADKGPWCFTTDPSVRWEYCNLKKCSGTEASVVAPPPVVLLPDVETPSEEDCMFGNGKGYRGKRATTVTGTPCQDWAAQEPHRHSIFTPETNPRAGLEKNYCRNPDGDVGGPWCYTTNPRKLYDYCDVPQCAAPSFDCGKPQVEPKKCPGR
Sequence of Plasminogen (P00747 581-810 limits assumed): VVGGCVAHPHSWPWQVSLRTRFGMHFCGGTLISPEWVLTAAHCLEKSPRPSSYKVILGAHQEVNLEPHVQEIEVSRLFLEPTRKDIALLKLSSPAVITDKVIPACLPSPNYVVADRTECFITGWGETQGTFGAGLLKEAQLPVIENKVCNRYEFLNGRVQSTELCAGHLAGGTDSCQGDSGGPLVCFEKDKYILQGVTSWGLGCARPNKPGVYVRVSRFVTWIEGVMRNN

| Structure (SMILES) | IC50 (Coagulation factor XII [1]) | inhibition [2] | further results |
| --- | --- | --- | --- |
| Nc1nc(-c2ccccn2)nn1C(=O)c1ccc(N2CCN(C3CCCCC3)CC2)c2ccccc12 | 56 nM |  |  |
| Nc1nc(-c2ccccn2)nn1C(=O)c1ccc(N2CCC3(CC2)CC3)cc1 |  | 21% |  |
| Nc1nc(-c2ccccn2)nn1C(=O)c1ccc(NC(=O)[C@@H](CC2CCCCC2)NC2CCCCC2)cc1 |  | 33% |  |
| Nc1nc(-c2ccccn2)nn1C(=O)c1ccc(N2CCN(C3CCCC3)CC2)c2ccccc12 | 50 nM |  |  |
| Nc1nc(-c2ccccn2)nn1C(=O)c1ccc(NC(=O)c2cccc3c2OCCO3)cc1 |  | 62% |  |
| O=C(NC[C@H]1CN(c2ccc(N3CCOCC3=O)cc2)C(=O)O1)c1ccc(Cl)s1 [RIVAROXABAN] |  |  | Activity [3]: Toxic |
| CN1CCN(c2ccc(C(=O)n3nc(-c4cccnc4)nc3N)cc2)CC1 |  | 57% |  |
| CC(C)N1CCN(c2ccc(C(=O)n3nc(-c4ccc(Cl)cn4)nc3N)cc2)CC1 | 81 nM | 77% |  |
| Nc1nc(-c2ccccn2)nn1C(=O)c1ccc(NCc2ccccc2)cc1 |  | 39% |  |
| Nc1nc(-c2ccccn2)nn1C(=O)c1ccc(N2CCC3(CC2)OCCO3)cc1 | 202 nM | 70% |  |
| Nc1nc(-c2ccccn2)nn1C(=O)c1ccc(NC(=O)c2ccccc2)c(F)c1 |  | 9% |  |
| Nc1nc(-c2ccccn2)nn1C(=O)c1ccc(NC(=O)[C@@H](Cc2ccccc2)NC2CCCCC2)cc1 |  | 24% |  |
| CN(C)C(=O)N1CCN(c2ccc(C(=O)n3nc(-c4ccccn4)nc3N)c3ccccc23)CC1 | 86 nM |  |  |
| CC(C)S(=O)(=O)N1CCN(c2ccc(C(=O)n3nc(-c4ccccn4)nc3N)c3ccccc23)CC1 | 95 nM |  |  |
| CC(C)N1CCN(c2ccc(C(=O)n3nc(-c4ccccn4)nc3N)cc2)CC1 | 72 nM | 79% |  |
| Nc1nc(-c2ccccn2)nn1C(=O)c1ccc(NC(=O)c2cccc3ccccc23)cc1 |  | 60% |  |
| Nc1nc(-c2ccccn2)nn1C(=O)c1cccc(N2CCC3(CC2)OCCO3)c1 |  | 40% |  |
| CC(C)N1CCN(c2ccc(C(=O)n3nc(-c4ccc(F)cn4)nc3N)cc2)CC1 | 79 nM | 79% | Activity (RAW264.7 [4]): Active; Activity (RAW264.7 [5]): Active |
| CN1CCC(c2ccc(C(=O)n3nc(-c4ccccn4)nc3N)cc2)CC1 |  | 34% |  |

| Structure (SMILES) | IC50 (Coagulation factor XII [1]) | inhibition [2] | further results |
| --- | --- | --- | --- |
| CN1CC=C(c2ccc(C(=O)n3nc(-c4ccccn4)nc3N)cc2)CC1 |  | 40% |  |
| CC(C)N1CCN(c2ccc(C(=O)n3nc(-c4ccccn4)nc3N)c3c2OCCO3)CC1 | 51 nM |  |  |
| COCCN1CCN(c2ccc(C(=O)n3nc(-c4ccccn4)nc3N)cc2)CC1 |  | 65% |  |
| CN(C)CCN(C)c1ccc(C(=O)n2nc(-c3ccccn3)nc2N)cc1 | 190 nM | 72% |  |
| CN1CCN(c2ccc(C(=O)n3nc(-c4ccncc4)nc3N)cc2)CC1 | 195 nM | 71% |  |
| Nc1nccc2c(NCC34COC(COc5ccn6ccnc6c5)(C3)C4)cccc12 |  |  | IC50 (Coagulation factor XII [6]): 100 nM |
| CN1CCN(c2cccc(C(=O)n3nc(-c4ccccn4)nc3N)c2)CC1 |  | 21% |  |
| Cc1cc(C(=O)n2nc(-c3ccccn3)nc2N)ccc1N1CCN(C(C)C)CC1 | 48 nM | 82% | Activity (RAW264.7 [4]): Active; Activity (RAW264.7 [5]): Active |
| Cc1cc(N2CCn3c(nnc3C(F)(F)F)[C@@H]2C)ncc1CNc1cccc2c(N)nccc12 |  |  | IC50 (Coagulation factor XII [6]): 10 nM |
| COc1cc(C(=O)n2nc(-c3ccccn3)nc2N)ccc1N1CCN(C(C)C)CC1 |  | 43% |  |
| CC(C)C[C@@H](NC1CCCC1)C(=O)Nc1ccc(C(=O)n2nc(-c3ccccn3)nc2N)cc1 |  | 28% |  |
| Nc1nc(-c2ccccn2)nn1C(=O)c1ccc(N2CCN(C3CC3)CC2)c2ccccc12 | 40 nM |  |  |
| Nc1nc(-c2ccccn2)nn1C(=O)c1ccc(NC(=O)c2ccccc2)cc1F |  | 28% |  |
| Cc1cc(C(=O)n2nc(-c3ccccn3)nc2N)cc(C)c1N1CCN(C(C)C)CC1 |  | 28% |  |
| Nc1nc(-c2ccccn2)nn1C(=O)c1ccc(NC(=O)c2cccc3c2CCCC3)cc1 |  | 62% |  |
| Nc1nc(-c2ccccn2)nn1C(=O)c1ccc(NC(=O)c2ccccc2)cc1 | 163 nM | 74% | IC50 [7]: > 5 µM; Ratio IC50 [8]: > 30; IC50 (Trypsin): > 5 µM; Ratio IC50 [9]: > 30; IC50 (Chymotrypsin): > 5 µM; Ratio IC50 [10]: > 150; Ratio IC50 [11]: > 30; Activity (Plasma [12]): 35%; IC50 (Coagulation factor XI): > 25 µM; Ratio IC50 [13]: > 30; IC50 (Prothrombin): 15.7 µM; Ratio IC50 [14]: 770; IC50 (Plasma kallikrein): > 25 µM; Ratio IC50 [15]: > 150; IC50 (Plasminogen): > 5 µM; Ratio IC50 [16]: > 30 |
| CN1CCN(c2ccc(C(=O)n3nc(-c4ccccn4)nc3N)cc2)CC1 | 180 nM | 72% |  |
| Nc1nc(-c2ccccn2)nn1C(=O)c1ccc(N2CCN(C3COC3)CC2)c2ccccc12 | 39 nM |  | IC50 [7]: > 25 µM; Ratio IC50 [8]: > 640; IC50 (Trypsin): > 25 µM; Activity (RAW264.7 [4]): Active; Ratio IC50 [9]: > 640; IC50 (Chymotrypsin): > 25 µM; Ratio IC50 [10]: > 640; Activity (Plasma [17]): inactive; Ratio IC50 [11]: > 640; Activity (Plasma [12]): 472%; IC50 (Coagulation factor XI): > 25 µM; IC50 (Coagulation factor X): > 25 µM; Ratio IC50 [13]: > 640; IC50 (Prothrombin): 20 µM; Ratio IC50 [14]: 830; IC50 (Plasma kallikrein): > 25 µM; Ratio IC50 [15]: > 640; Activity (RAW264.7 [5]): Active; IC50 (Plasminogen): > 25 µM; Ratio IC50 [16]: > 640 |
| Nc1nc(-c2ccccn2)nn1C(=O)c1ccc(N2CCN(CCO)CC2)cc1 |  | 63% |  |
